Measurements: paper PMC5399052, “Integrating in vitro data and physiologically based kinetic (PBK) modelling to assess the in vivo potential developmental toxicity of a series of phenols” (Archives of Toxicology, 2016)
Like-named read-outs stand apart in the source and are kept apart here.

Columns and labels:
[1] = tested on: rat; assay: In vitro PBK-based reverse dosimetry (predicted developmental toxicity); details: BMDL05 based on Cmax
Protocol: In vitro concentration–response data obtained with the EST were translated to in vivo dose–response values by applying PBK-based reverse modelling, performed as described by Strikwold et al. ([2013]) with some modifications. […] In vivo albumin and fat levels that are used in the extrapolation rules were adjusted to values that correspond to embryos/foetuses during mid-/late gestation. […] The vitro lipid fraction and albumin levels resembling the situation in the EST were 0.04% and 4.8 mg/ml, respectively (Verwei et al. [2006]).
The BMDL05 values of the in vivo study were derived using the BMDS version 2.6.

[2] = tested on: rat liver microsomes; assay: in vitro; details: for Vmax(app) glucuronidation (± SD): rat liver microsomes, 10 mM UDPGA, alamethicin activated
Protocol: The formation of glucuronide metabolites of the p-substituted phenols was investigated in incubations with rat liver microsomes. […] To obtain maximum glucuronidation activity, the microsomes were activated by preincubating the incubation mixture with 0.025 mg/ml alamethicin added from a 200 times concentrated stock solution in methanol, during 15 min on ice (Fisher et al. [2000]). Subsequently, the incubations were started after a 1-min preincubation at 37 °C by addition of the substrate from a 200 times concentrated stock solution in DMSO and incubated in a shaking water bath at 37 °C for 45 min. The reactions were terminated by addition of ice-cold acetonitrile (20% v/v). In the blank incubation mixtures, UDPGA was omitted. Samples were analysed by UPLC–PDA (see “Quantification of analytes” section). No reference standards of the glucuronide metabolites were commercially available. […] At first, retention times from the UPLC–PDA chromatograms of the parent compound of the blank incubation were compared with the retention times of newly appearing peaks in chromatograms of the incubation mixtures, as the glucuronide conjugates are expected to elute earlier compared with their parent compounds due do their increased hydrophilicity. […] For this purpose, a volume of 10 µl of the incubation mixture of the glucuronidation assay (that was not terminated by the addition of ice-cold acetonitrile) was added to 90 µl of 200 mM potassium phosphate (pH 6.2). Then, 4 µl of glucuronidase (200 units/ml) was added, and the mixtures were incubated for 60 min in a shaking water bath at 37 °C. The reactions were terminated by addition of ice-cold acetonitrile (20% v/v) and were put on ice. Control samples were treated under the same conditions, but without glucuronidase.
The conditions of the incubation assays were optimised to obtain linear reaction rates with respect to incubation time and protein concentration and non-limiting cofactor levels were applied. […] To obtain maximum glucuronidation activity, the microsomes were activated by preincubating the incubation mixture with 0.025 mg/ml alamethicin added from a 200 times concentrated stock solution in methanol, during 15 min on ice (Fisher et al. [2000]).
Kinetic constants for the glucuronidation of the p-substituted phenols were derived by fitting the data to the standard Michaelis–Menten equation; v=Vmax∗S/Km+[S] in which [S] represents the substrate concentration, V max the maximum velocity and K m the Michaelis–Menten constant for the formation of the glucuronide metabolites. Data analysis was accomplished using GraphPad Prism 5.0 software (GraphPad, San Diego, CA, USA). […] The in vivo K m value was assumed to be the same to the in vitro K m value.
Samples from the BeWo and Caco-2 transport experiments were centrifuged at 13,000 rpm at 5 °C for 15 min. Next 7.5 µl of the supernatant of each sample was analysed by UPLC (Waters Acquity). Samples from the glucuronidation assays were centrifuged at 15,000 rpm at 5 °C for 5 min. […] All samples, except those from transport studies with fluorescein, were analysed on a Waters BEH C18 1.7 µm column, 2.1 × 50 mm, with nanopure water (0.1% TFA) (A) and pure acetonitrile (B) applying a gradient elution. The start condition was 100:0 (A:B), changing to 90:10 from 1 to 2 min, then to 10:90 from 2 to 4 min (or from 2 to 3 min when analysing samples for p-heptyloxyphenylglucuronide), remaining at this ratio for 0.5 min and then rapidly declining to the start condition. The flow rate was 0.6 ml/min.

[3] = tested on: BeWo cells; assay: In vitro placental transport study (BeWo b30 transwell)
Protocol: BeWo cells (passages 28–31) were cultured in DMEM with […] and supplemented with 10% (v/v) heat-inactivated FCS, 2 mM L-glutamine, 10,000 U/ml penicillin and 10 mg/ml streptomycin and maintained in polystyrene cell culture flasks (Corning, Amsterdam, the Netherlands) in a 5% CO2-humidified atmosphere at 37 °C. Cells were harvested after exposure to a trypsin–EDTA solution. Next, the cells were seeded onto Transwell® inserts (0.4-µm pored polycarbonate membrane, 12 mm diameter), with a density of 10^5 cells/cm^2. Cell culture medium (0.5 and 1.5 ml in the apical and basolateral compartment, respectively) was changed daily.
Transport experiments were performed 6 days post-seeding. The transport buffer consisted of HBSS with 30 mg/ml bovine serum albumin (apical compartment) and 10 mg/ml bovine serum albumin (basolateral compartment) representing mid- and late gestational maternal and embryonic/foetal rat plasma albumin levels, respectively (Honda et al. [2008]; Mcmullin et al. [2008]; Yeoh and Morgan [1974]). The transport experiments were performed for the same compounds and according to the same method as described for the Caco-2 transport experiments, except that only cell layers with a TEER value >190 Ω cm^2 were used for the transport experiments. The BeWo transport studies encompassed four independently performed experiments including two replicates in each assay. Samples were analysed by UPLC–PDA (see “Quantification of analytes” section) for the presence of the test compound and possible metabolites. The apparent permeability coefficients were calculated using the same method as described for the Caco-2 transport experiments.

[4] = cited from earlier work; for Concentration in EST culture medium over time: without cells, ref Strikwold et al. [2012]
[5] = P app ratio to antipyrine multiplied by antipyrine clearance 0.18 l/h, GD11

Structure (SMILES): CC(=O)c1ccc(O)cc1 [p-Methylketophenol, p-methylketophenol]
- Potency ratio (phenol / p-substituted phenol), in vitro PBK approach [1]: 0.5 fold
- Catalytic efficiency (Vmax/Km) [2]: 1.16 ml/min/mg protein
- Km [2]: 138 ± 17 µM
- Scaled Vmax(app) [2]: 365 µmol/h/g liver
- Scaled catalytic efficiency [2]: 2.65 l/h/g liver
- Vmax(app) glucuronidation (± SD) [2]: 160 ± 4.4 nmol/min/mg microsomal protein
- CLPL, predicted rat transplacental clearance [3]: 0.12 L/h
- Concentration in EST culture medium over time [4]: stable

Structure (SMILES): Oc1ccccc1 [Phenol]
- Scaled catalytic efficiency ([2]; scaled to rat liver): 0.44 l/h/g liver
- Scaled Vmax(app) ([2]; scaled with microsomal protein yield 38 mg/g rat liver): 205 µmol/h/g liver
- P app fold higher than antipyrine ([3]; BeWo): 1.03 fold
- CLPL, predicted rat transplacental clearance [3, 5]: 0.19 L/h
- Loss in the EST ([4]; 10-day EST, ref Strikwold et al. [2013]): 39%
- Concentration in EST culture medium over time [4]: decreased in time

Structure (SMILES): Oc1ccc(F)cc1 [p-Fluorophenol, p-fluorophenol]
- Potency ratio (phenol / p-substituted phenol), in vitro PBK approach [1]: 0.7 fold
- Catalytic efficiency (Vmax/Km) ([2]; Sprague-Dawley, rat, pH 7.4): 0.32 ml/min/mg protein
- Scaled catalytic efficiency ([2]; Sprague-Dawley, rat, pH 7.4): 0.74 l/h/g liver
- Vmax(app) glucuronidation (± SD) [2]: 101 ± 1.6 nmol/min/mg microsomal protein
- Scaled Vmax(app) ([2]; rat, pH 7.4): 231 µmol/h/g liver
- CLPL, predicted rat transplacental clearance [3, 5]: 0.15 L/h
- Concentration in EST culture medium over time [4]: decreased in time
